Our source for the IC50 values is patent US20260256789A1, “METHODS FOR TREATMENT OF CANCER” (Frontier Medicines Corporation, priority 2022, published 2026).

The target in this assay is T1, KRAS G12C (GMPPNP-loaded) and cRAF Ras-binding domain (Homo sapiens, UniProt P01116, C118S/C51S/C80L/G12C).
T1 construct: truncated version comprising amino acids 1-169
T1 sequence (P01116 1-169 isoform P01116-2 G12C/C51S/C80L/C118S): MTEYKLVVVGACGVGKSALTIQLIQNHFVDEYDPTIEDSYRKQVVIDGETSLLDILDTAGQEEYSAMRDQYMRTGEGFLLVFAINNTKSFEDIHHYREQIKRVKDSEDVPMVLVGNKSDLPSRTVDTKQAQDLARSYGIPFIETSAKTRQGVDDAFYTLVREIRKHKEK
The assay is described as follows: Inhibition of KRAS G12C and cRAF binding (AlphaScreen). The following applies: KRAS G12C preloaded with GTP analogue GMPPNP, 2 hours preincubation. The text has this: The ability of compounds of Formula (A), Formula (B) and Formula (C), and pharmaceutically acceptable salts and/or isotopologues thereof, to inhibit activity of the GTP-bound form of KRAS G12C can be tested using methods such as the in vitro assay described in Example 179 below. Example 179 describes determining, for various compounds, the half-maximal inhibition (IC50) of KRAS G12C loaded with GTP analogue GMPPNP from binding to cRaf, as the Ras-binding domain (RBD). Example 180 describes determining, for various compounds, the half-maximal inhibition (IC50) of KRAS G12C loaded with GTP analogue GMPPNP from binding to PI3Kα, as the Ras-binding domain (RBD). Example 181 describes testing compounds for the ability to inhibit cell viability in MCF10A G12C/A59G mutant, which abrogates GTPase activity, thus preventing hydrolysis of GTP to GDP.
The AlphaScreen technology was used to determine IC50s for compound inhibition of KRAS G12C (present as the Cys-light (C51S, C80L and C118S), truncated version comprising amino acids 1-169) and cRAF interaction. Compounds were diluted in 100% DMSO and each compound concentration was spotted at 200 nl/well onto low volume, white 384 well plates. The KRAS G12C contained a biotin-AviTag and the cRaf, as Ras-binding domain (amino acids 50-131, RBD), was GST-tagged. KRAS G12C was preloaded with the GTP analogue Guanosine 5′-[β,γ-imido]triphosphate (GMPPNP). The KRAS G12C was diluted in 25 mM Hepes, pH 7.4, 150 mM NaCl, 5 mM MgCl2, 0.01% TritonX-100 and 10 μM GMPPNP and added at 10 ul/well to compound-spotted plates resulting in a DMSO concentration of 2%. Plates were incubated for 2 hours. A mixture of RBD and the AlphaScreen streptavidin donor and glutathione acceptor beads diluted in 25 mM Hepes, pH 7.4, 150 mM NaCl, 5 mM MgCl2, 0.01% TritonX-100 and 2% DMSO was then added at 10 ul/well and incubated for 60-90 minutes before the samples were read for emission at 570 nm after excitation of the donor beads at 680 nm. All incubations were performed at room temperature. The final top compound concentration was 50 μM with 1:3 titrations for 10-point dose response curves. Final assay conditions were 0.5 nM KRAS G12C, 0.75 nM RBD and 5 μg/ml each of AlphaScreen donor and acceptor beads. IC50s were determined using nonlinear regression fit of [inhibitor] vs. response (4 parameters). […]
Background: In Alpha technology, singlet oxygen from a donor bead excites a nearby acceptor bead.
Turning to `Cc1cc(N)nc(-c2ncc3c(N4CCN(C#N)[C@@H](CC#N)C4)nc(OC[C@@]45CCCN4C[C@H](F)C5)nc3c2F)c1C(F)(F)F` [Example 13, (S)-4-(7-(6-amino-4-methyl-3-(trifluoromethyl)pyridin-2-yl)-8-fluoro-2-(((2R,7aS)-2-fluorohexahydro-1H-pyrrolizin-7a-yl)methoxy)pyrido[4,3-d]pyrimidin-4-yl)-2-(cyanomethyl)piperazine-1-carbonitrile], the IC50 (in general, the concentration that inhibits the measured activity by half) was 10 to 100 nM.

`C=CC(=O)N1CC[C@@H](N(C)c2nc(OC[C@@]34CCCN3C[C@H](F)C4)nc3c(F)c(-c4cc(O)ccc4C4CC4)ncc23)C1` [Example 31, 1-((R)-3-((7-(2-cyclopropyl-5-hydroxyphenyl)-8-fluoro-2-(((2R,7aS)-2-fluorotetrahydro-1H-pyrrolizin-7a(5H)-yl)methoxy)pyrido[4,3-d]pyrimidin-4-yl)(methyl)amino)pyrrolidin-1-yl)prop-2-en-1-one] returned an IC50 of 10 to 100 nM.

Take `C=CC(=O)N1CC[C@@H](N(C)c2nc(OCC34CCCN3CCC4)nc3c2CC(C)C(c2nc(N)cc(C)c2C(F)(F)F)C3)C1` (stereo partly drawn) [Example 32, 1-((3R)-3-((7-(6-amino-4-methyl-3-(trifluoromethyl)pyridin-2-yl)-2-((hexahydro-1H-pyrrolizin-7a-yl)methoxy)-6-methyl-5,6,7,8-tetrahydroquinazolin-4-yl)(methyl)amino)pyrrolidin-1-yl)prop-2-en-1-one]: the IC50 was 10 to 100 nM. Turning to `CN(CC1CN(C(=O)/C=C/c2nc(C(C)(C)O)no2)C1)c1nc(OC[C@@]23CCCN2C[C@H](F)C3)nc2c(F)c(-c3nc(N)cc4cccc(F)c34)ncc12` [Example 35, (E)-1-(3-(((7-(3-amino-8-fluoroisoquinolin-1-yl)-8-fluoro-2-(((2R,7aS)-2-fluorohexahydro-1H-pyrrolizin-7a-yl)methoxy)pyrido[4,3-d]pyrimidin-4-yl)(methyl)amino)methyl)azetidin-1-yl)-3-(3-(2-hydroxypropan-2-yl)-1,2,4-oxadiazol-5-yl)prop-2-en-1-one], the IC50 was less than 10 nM.

`CN(C)CC#CC(=O)N1CC[C@@H](N(C)c2nc(OC[C@@]34CCCN3C[C@H](F)C4)nc3c(F)c(-c4nc(N)cc5cccc(Cl)c45)ncc23)C1` [Example 38, 1-((R)-3-((7-(3-amino-8-chloroisoquinolin-1-yl)-8-fluoro-2-(((2R,7aS)-2-fluorohexahydro-1H-pyrrolizin-7a-yl)methoxy)pyrido[4,3-d]pyrimidin-4-yl)(methyl)amino)pyrrolidin-1-yl)-4-(dimethylamino)but-2-yn-1-one] displayed an IC50 of less than 10 nM.

The molecule `C=CC(=O)N1CC[C@@H](N(C)c2nc(OC[C@@]34CCCN3C[C@H](F)C4)nc3c(F)c(-c4nc(N)ccc4C(F)(F)F)ncc23)C1` [Example 46, 1-((R)-3-((7-(6-amino-3-(trifluoromethyl)pyridin-2-yl)-8-fluoro-2-(((2R,7aS)-2-fluorotetrahydro-1H-pyrrolizin-7a(5H)-yl)methoxy)pyrido[4,3-d]pyrimidin-4-yl)(methyl)amino)pyrrolidin-1-yl)prop-2-en-1-one] had an IC50 of 100 to 500 nM. Molecule `CC(C)c1noc(/C=C/C(=O)N2CC[C@@H](N(C)c3nc(OC[C@@]45CCCN4C[C@H](F)C5)nc4c(F)c(-c5nc(N)ccc5C(F)(F)F)ncc34)C2)n1` [Example 47, (E)-1-((R)-3-((7-(6-amino-3-(trifluoromethyl)pyridin-2-yl)-8-fluoro-2-(((2R,7aS)-2-fluorotetrahydro-1H-pyrrolizin-7a(5H)-yl)methoxy)pyrido[4,3-d]pyrimidin-4-yl)(methyl)amino)pyrrolidin-1-yl)-3-(3-isopropyl-1,2,4-oxadiazol-5-yl)prop-2-en-1-one] showed an IC50 of 10 to 100 nM. In the case of `Cc1noc(/C=C/C(=O)N2CC[C@@H](N(C)c3nc(OC[C@@]45CCCN4C[C@H](F)C5)nc4c(F)c(-c5nc(N)ccc5C(F)(F)F)ncc34)C2)n1` [Example 48, (E)-1-((R)-3-((7-(6-amino-3-(trifluoromethyl)pyridin-2-yl)-8-fluoro-2-(((2R,7aS)-2-fluorotetrahydro-1H-pyrrolizin-7a(5H)-yl)methoxy)pyrido[4,3-d]pyrimidin-4-yl)(methyl)amino)pyrrolidin-1-yl)-3-(3-methyl-1,2,4-oxadiazol-5-yl)prop-2-en-1-one] it was 10 to 100 nM; in that of `Cc1cc(N)nc(-c2ncc3c(N4CCN(C#N)CC4)nc(OC[C@@]45CCCN4C[C@H](F)C5)nc3c2F)c1C(F)(F)F` [Example 49, 4-(7-(6-amino-4-methyl-3-(trifluoromethyl)pyridin-2-yl)-8-fluoro-2-(((2R,7aS)-2-fluorohexahydro-1H-pyrrolizin-7a-yl)methoxy)pyrido[4,3-d]pyrimidin-4-yl)piperazine-1-carbonitrile], 100 to 500 nM; in that of `Cc1cc(N)nc(-c2ncc3c(N(C)CC4CN(C(=O)/C=C/c5nc(C(C)C)no5)C4)nc(OC[C@@]45CCCN4C[C@H](F)C5)nc3c2F)c1C(F)(F)F` [Example 51, (E)-1-(3-(((7-(6-amino-4-methyl-3-(trifluoromethyl)pyridin-2-yl)-8-fluoro-2-(((2R,7aS)-2-fluorohexahydro-1H-pyrrolizin-7a-yl)methoxy)pyrido[4,3-d]pyrimidin-4-yl)(methyl)amino)methyl)azetidin-1-yl)-3-(3-isopropyl-1,2,4-oxadiazol-5-yl)prop-2-en-1-one], less than 10 nM.

For `Cc1noc(/C=C/C(=O)N2CC[C@@H](N(C)c3nc(OC[C@@]45CCCN4C[C@H](F)C5)nc4c(F)c(-c5nc(N)cc(C)c5C)ncc34)C2)n1` [Example 52, (E)-1-((R)-3-((7-(6-amino-3,4-dimethylpyridin-2-yl)-8-fluoro-2-(((2R,7aS)-2-fluorotetrahydro-1H-pyrrolizin-7a(5H)-yl)methoxy)pyrido[4,3-d]pyrimidin-4-yl)(methyl)amino)pyrrolidin-1-yl)-3-(3-methyl-1,2,4-oxadiazol-5-yl)prop-2-en-1-one], the IC50 was 10 to 100 nM. With `Cc1cc(N)nc(-c2ncc3c(N(C)[C@@H]4CCN(C(=O)/C=C/c5nc(C(C)C)no5)C4)nc(OC[C@@]45CCCN4C[C@H](F)C5)nc3c2F)c1C` [Example 53, (E)-1-((R)-3-((7-(6-amino-3,4-dimethylpyridin-2-yl)-8-fluoro-2-(((2R,7aS)-2-fluorotetrahydro-1H-pyrrolizin-7a(5H)-yl)methoxy)pyrido[4,3-d]pyrimidin-4-yl)(methyl)amino)pyrrolidin-1-yl)-3-(3-isopropyl-1,2,4-oxadiazol-5-yl)prop-2-en-1-one], the IC50 fell in the range of 10 to 100 nM. Turning to `C=CC(=O)N1CC(CN(C)c2nc(OC[C@@]34CCCN3C[C@H](F)C4)nc3c(F)c(-c4nc(N)ccc4C(F)(F)F)ncc23)C1` [Example 54, 1-(3-(((7-(6-amino-3-(trifluoromethyl)pyridin-2-yl)-8-fluoro-2-(((2R,7aS)-2-fluorohexahydro-1H-pyrrolizin-7a-yl)methoxy)pyrido[4,3-d]pyrimidin-4-yl)(methyl)amino)methyl)azetidin-1-yl)prop-2-en-1-one], the IC50 was in the range of 100 to 500 nM. In the case of `Cc1noc(/C=C/C(=O)N2CC[C@@H](N(C)c3nc(OC[C@@]45CCCN4C[C@H](F)C5)nc4c(F)c(-c5nc(N)cc(C)c5C(F)(F)F)ncc34)C2)n1` [Example 55, (E)-1-((R)-3-((7-(6-amino-4-methyl-3-(trifluoromethyl)pyridin-2-yl)-8-fluoro-2-(((2R,7aS)-2-fluorotetrahydro-1H-pyrrolizin-7a(5H)-yl)methoxy)pyrido[4,3-d]pyrimidin-4-yl)(methyl)amino)pyrrolidin-1-yl)-3-(3-methyl-1,2,4-oxadiazol-5-yl)prop-2-en-1-one] it was less than 10 nM; in that of `Cc1cc(N)nc(-c2ncc3c(N(C)[C@@H]4CCN(C(=O)/C=C/c5nc(C(C)(F)F)no5)C4)nc(OC[C@@]45CCCN4C[C@H](F)C5)nc3c2F)c1C(F)(F)F` [Example 56, (E)-1-((R)-3-((7-(6-amino-4-methyl-3-(trifluoromethyl)pyridin-2-yl)-8-fluoro-2-(((2R,7aS)-2-fluorotetrahydro-1H-pyrrolizin-7a(5H)-yl)methoxy)pyrido[4,3-d]pyrimidin-4-yl)(methyl)amino)pyrrolidin-1-yl)-3-(3-(1,1-difluoroethyl)-1,2,4-oxadiazol-5-yl)prop-2-en-1-one], less than 10 nM.
